US10202376B2, “Heterocyclic compound” (Takeda Pharmaceutical Company Limited, priority 2014, dated 2019)

These compounds were tested against T1, Human GRIN1 and human GRIN2B expressing HEK293 cells (Homo sapiens, UniProt Q13224) (assay: NR2B Ca2+ flux assay). Details: 10 μM test compound, glutamic acid/glycine stimulated Fluo-4 fluorescence, FLIPR, read-out: inhibitory rate (@10 μM).
T1 construct: host or cells: HEK293
Type: cell-based
Procedure: Experimental Example 1 NR2B Ca^2+ Flux Assay
Human GRIN1 and human GRIN2B expressing HEK293 cells were purchased from ChanTest. The cells were cultured in a DMEM/F-12 (COSMO BIO, 10-092-CM) medium added with 10% FBS (fetal bovine serum, AusGene), 100 units/mL penicillin, 100 μg/mL streptomycin, 500 μg/mL neomycin, 100 μg/mL Zeocin, 5 μg/mL Blasticidin at 37° C., 5% CO2. The cells were detached from flask with trypsin the day before the assay, suspended in a seeding medium (DMEM (Invitrogen, 31053) added with 10% FBS, 100 units/mL penicillin, 100 μg/mL streptomycin) at 8×10^5 cells/mL, seeded by 25 μL per well in a 384-well plate (Falcon, 356663) at 20000 cells/well, and cultured overnight in an incubator. On the day of the assay, tetracycline (Wako Pure Chemical Industries, Ltd., 209-16561) was diluted with the seeding medium at 2 μg/mL, added at […] to the plate seeded with the cells, and cultured for 2 hr in an incubator. Thereafter, the medium was removed, and the cells were washed with 50 μL/well assay buffer (137 mM NaCl, 4 mM KCl, 1.8 mM CaCl2, 10 mM HEPES (pH 7.2), 10 mM Glucose, 0.1% BSA). Then, a loading buffer (assay buffer added with 2.5 uM Fluo-4AM, 2 mM Amaranth, 1 mM Tartrazine) was added at 25 μL/well, and loading was performed in the incubator for 30 min, and at room temperature for 15 min. A test compound (25 μL) was added, and the cells were stood for 15 min at room temperature. Using FLIPR (Molecular Devices), 25 μL of an assay buffer containing […], 30 μM glycine was added, and the fluorescence signal was measured every 3 seconds for 5 min. The inhibitory activity was calculated as a relative activity value that inhibits 100% of the cumulative value of the fluorescence value of a well added with a buffer free of glutamic acid, glycine, relative to the cumulative value of the fluorescence value of each well.

T1 sequence (Q13224 27-1484, other chains not shown): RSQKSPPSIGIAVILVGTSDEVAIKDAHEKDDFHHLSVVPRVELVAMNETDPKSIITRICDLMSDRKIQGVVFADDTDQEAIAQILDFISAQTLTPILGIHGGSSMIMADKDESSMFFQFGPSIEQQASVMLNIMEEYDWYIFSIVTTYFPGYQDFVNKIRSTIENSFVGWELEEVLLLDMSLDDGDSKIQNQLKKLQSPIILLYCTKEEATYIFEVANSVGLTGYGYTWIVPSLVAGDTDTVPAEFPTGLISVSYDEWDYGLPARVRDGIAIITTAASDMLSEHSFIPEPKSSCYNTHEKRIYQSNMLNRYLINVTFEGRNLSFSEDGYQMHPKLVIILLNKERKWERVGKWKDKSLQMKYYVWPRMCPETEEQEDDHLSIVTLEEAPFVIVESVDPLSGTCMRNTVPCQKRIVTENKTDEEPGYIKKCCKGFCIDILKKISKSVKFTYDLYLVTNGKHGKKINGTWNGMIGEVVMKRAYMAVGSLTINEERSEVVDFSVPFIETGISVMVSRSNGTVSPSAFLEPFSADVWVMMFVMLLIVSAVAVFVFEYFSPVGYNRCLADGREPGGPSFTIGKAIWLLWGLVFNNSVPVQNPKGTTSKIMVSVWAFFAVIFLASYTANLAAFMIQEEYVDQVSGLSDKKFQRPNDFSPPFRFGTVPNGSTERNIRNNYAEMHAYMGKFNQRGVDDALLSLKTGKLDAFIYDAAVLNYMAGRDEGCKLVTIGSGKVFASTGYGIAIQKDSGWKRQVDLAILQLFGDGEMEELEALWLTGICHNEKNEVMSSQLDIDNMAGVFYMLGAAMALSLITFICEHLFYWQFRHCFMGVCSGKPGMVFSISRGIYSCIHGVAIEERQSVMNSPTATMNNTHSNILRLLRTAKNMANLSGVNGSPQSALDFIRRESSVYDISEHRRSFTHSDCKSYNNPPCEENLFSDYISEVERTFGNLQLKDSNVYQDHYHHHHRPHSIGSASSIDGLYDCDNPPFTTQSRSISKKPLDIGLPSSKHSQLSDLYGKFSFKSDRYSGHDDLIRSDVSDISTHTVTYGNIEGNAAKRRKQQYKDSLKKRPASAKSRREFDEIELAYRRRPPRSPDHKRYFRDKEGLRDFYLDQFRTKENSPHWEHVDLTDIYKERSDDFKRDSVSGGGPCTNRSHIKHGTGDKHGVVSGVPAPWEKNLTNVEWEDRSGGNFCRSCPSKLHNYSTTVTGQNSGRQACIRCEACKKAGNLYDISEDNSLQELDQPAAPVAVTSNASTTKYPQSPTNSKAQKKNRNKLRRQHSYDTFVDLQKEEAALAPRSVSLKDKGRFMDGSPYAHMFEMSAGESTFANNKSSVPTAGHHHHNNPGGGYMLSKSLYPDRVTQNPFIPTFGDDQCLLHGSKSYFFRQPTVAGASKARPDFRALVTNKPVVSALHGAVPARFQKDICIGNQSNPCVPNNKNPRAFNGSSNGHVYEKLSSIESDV

Row | Compound | inhibition at 10 µM
1 | COc1ccc(NC(=O)Cc2cccc3nccn23)cc1 [Example 2, 2-(imidazo[1,2-a]pyridin-5-yl)-N-(4-methoxyphenyl)acetamide] | 91%
2 | O=C(Cc1cccc2nccn12)Nc1ccc(C2CC2)cc1 [Example 4, N-(4-cyclopropylphenyl)-2-(imidazo[1,2-a]pyridin-5-yl)acetamide] | 94%
3 | O=C(Cc1cccc2nccn12)Nc1ccc(OC(F)F)cc1 [Example 6, N-(4-(difluoromethoxy)phenyl)-2-(imidazo[1,2-a]pyridin-5-yl)acetamide] | 93%
4 | CCCc1ccc(NC(=O)Cc2cccc3nccn23)cc1 [Example 10, 2-(imidazo[1,2-a]pyridin-5-yl)-N-(4-propylphenyl)acetamide] | 91%
5 | CCc1ccc(NC(=O)Cc2cccc3nccn23)cc1F [Example 11, N-(4-ethyl-3-fluorophenyl)-2-(imidazo[1,2-a]pyridin-5-yl)acetamide] | 94%
6 | O=C(Cc1cccc2nccn12)Nc1ccc(C2CC2)c(F)c1 [Example 12, N-(4-cyclopropyl-3-fluorophenyl)-2-(imidazo[1,2-a]pyridin-5-yl)acetamide] | 93%
7 | O=C(Cc1cccc2nccn12)Nc1ccc(CC(F)F)cc1 [Example 13, N-(4-(2,2-difluoroethyl)phenyl)-2-(imidazo[1,2-a]pyridin-5-yl)acetamide] | 88%
8 | O=C(Cc1cccc2nccn12)Nc1ccc(OC(F)(F)F)c(F)c1 [Example 14, N-(3-fluoro-4-(trifluoromethoxy)phenyl)-2-(imidazo[1,2-a]pyridin-5-yl) acetamide] | 92%
9 | Cc1ccc(NC(=O)Cc2cccc3nccn23)cc1F [Example 15, N-(3-fluoro-4-methylphenyl)-2-(imidazo[1,2-a]pyridin-5-yl)acetamide] | 91%
10 | O=C(Cc1cccc2nccn12)Nc1ccc(OC(F)F)c(F)c1 [Example 17, N-(4-(difluoromethoxy)-3-fluorophenyl)-2-(imidazo[1,2-a]pyridin-5-yl)acetamide] | 93%
11 | Cc1cnc2cccc(CC(=O)Nc3ccc(C(F)(F)F)cc3)n12 [Example 20, 2-(3-methylimidazo[1,2-a]pyridin-5-yl)-N-(4-(trifluoromethyl)phenyl)acetamide] | 74%
12 | O=C(Cc1cccc2nccn12)Nc1ccc(F)c(C(F)F)c1 [Example 21, N-(3-(difluoromethyl)-4-fluorophenyl)-2-(imidazo[1,2-a]pyridin-5-yl)acetamide] | 56%
13 | O=C(Cc1cccc2nccn12)Nc1ccc(F)cc1F [Example 27, N-(2,4-difluorophenyl)-2-(imidazo[1,2-a]pyridin-5-yl)acetamide] | 66%
14 | Cc1cccc(NC(=O)Cc2cccc3nccn23)c1 [Example 30, 2-(imidazo[1,2-a]pyridin-5-yl)-N-(3-methylphenyl)acetamide] | 50%
15 | O=C(Cc1cccc2nccn12)Nc1ccc(Cl)cc1 [Example 33, N-(4-chlorophenyl)-2-(imidazo[1,2-a]pyridin-5-yl)acetamide] | 92%
16 | Cc1ccc(NC(=O)Cc2cccc3nccn23)cc1 [Example 35, 2-(imidazo[1,2-a]pyridin-5-yl)-N-(4-methylphenyl)acetamide] | 90%
17 | O=C(Cc1cccc2nccn12)Nc1ccc(C(F)(F)F)cn1 [Example 36, 2-(imidazo[1,2-a]pyridin-5-yl)-N-(5-(trifluoromethyl)pyridin-2-yl)acetamide] | 80%
18 | O=C(Cc1cccc2nccn12)Nc1ccc(C(F)(F)F)c(Cl)c1 [Example 39, N-(3-chloro-4-(trifluoromethyl)phenyl)-2-(imidazo[1,2-a]pyridin-5-yl)acetamide] | 90%
19 | O=C(Cc1cccc2nccn12)Nc1ccc(C(F)(F)F)cc1F [Example 43, N-(2-fluoro-4-(trifluoromethyl)phenyl)-2-(imidazo[1,2-a]pyridin-5-yl)acetamide] | 90%
20 | O=C(Cc1cccc2nccn12)Nc1ccc(C(F)(F)F)nc1 [Example 44, 2-(imidazo[1,2-a]pyridin-5-yl)-N-(6-(trifluoromethyl)pyridin-3-yl)acetamide] | 71%
21 | CCN(C(=O)Cc1cccc2nccn12)c1ccc(OC(F)(F)F)cc1 [Example 59, N-ethyl-2-(imidazo[1,2-a]pyridin-5-yl)-N-(4-(trifluoromethoxy)-phenyl)acetamide] | 57%

Continued, values first:

Row | inhibition at 10 µM | Compound
22 | 91% | O=C(Cc1cccc2nccn12)Nc1ccc(C(F)(F)F)cc1 [Example 1, 2-(imidazo[1,2-a]pyridin-5-yl)-N-(4-(trifluoromethyl)phenyl)acetamide]
23 | 94% | CCc1ccc(NC(=O)Cc2cccc3nccn23)cc1 [Example 3, N-(4-ethylphenyl)-2-(imidazo[1,2-a]pyridin-5-yl)acetamide]
24 | 93% | O=C(Cc1cccc2nccn12)Nc1ccc(OC(F)(F)F)cc1 [Example 5, 2-(imidazo[1,2-a]pyridin-5-yl)-N-(4-(trifluoromethoxy)phenyl)acetamide]
25 | 90% | O=C(Cc1cccc2nccn12)Nc1ccc(Cl)c(F)c1 [Example 7, N-(4-chloro-3-fluorophenyl)-2-(imidazo[1,2-a]pyridin-5-yl)acetamide]
26 | 92% | COc1ccc(NC(=O)Cc2cccc3nccn23)cc1F [Example 8, N-(3-fluoro-4-methoxyphenyl)-2-(imidazo[1,2-a]pyridin-5-yl)acetamide]
27 | 87% | O=C(Cc1cccc2nccn12)Nc1cc(F)c(F)c(F)c1 [Example 9, 2-(imidazo[1,2-a]pyridin-5-yl)-N-(3,4,5-trifluorophenyl)acetamide]
28 | 91% | O=C(Cc1cccc2nccn12)Nc1ccc(I)cc1 [Example 16, 2-(imidazo[1,2-a]pyridin-5-yl)-N-(4-iodophenyl)acetamide]
29 | 91% | CCOc1ccc(NC(=O)Cc2cccc3nccn23)cc1F [Example 18, N-(4-ethoxy-3-fluorophenyl)-2-(imidazo[1,2-a]pyridin-5-yl)acetamide]
30 | 91% | COc1c(F)cc(NC(=O)Cc2cccc3nccn23)cc1F [Example 19, N-(3,5-difluoro-4-methoxyphenyl)-2-(imidazo[1,2-a]pyridin-5-yl)acetamide]
31 | 81% | Cc1cn2c(CC(=O)Nc3ccc(C(F)(F)F)cc3)cccc2n1 [Example 23, 2-(2-methylimidazo[1,2-a]pyridin-5-yl)-N-(4-(trifluoromethyl)phenyl)-acetamide]
32 | 62% | COc1ccc(NC(=O)Cc2cccc3nccn23)cn1 [Example 24, 2-(imidazo[1,2-a]pyridin-5-yl)-N-(6-methoxypyridin-3-yl)acetamide]
33 | 53% | O=C(Cc1cccc2nccn12)Nc1ccccc1 [Example 26, 2-(imidazo[1,2-a]pyridin-5-yl)-N-phenylacetamide]
34 | 88% | O=C(Cc1cccc2nccn12)Nc1ccc(F)c(F)c1 [Example 29, N-(3,4-difluorophenyl)-2-(imidazo[1,2-a]pyridin-5-yl)acetamide]
35 | 78% | N#Cc1ccc(NC(=O)Cc2cccc3nccn23)cc1 [Example 31, N-(4-cyanophenyl)-2-(imidazo[1,2-a]pyridin-5-yl)acetamide]
36 | 83% | O=C(Cc1cccc2nccn12)Nc1ccc(F)cc1 [Example 32, N-(4-fluorophenyl)-2-(imidazo[1,2-a]pyridin-5-yl)acetamide]
37 | 71% | O=C(Cc1cccc2nccn12)Nc1ccc(Oc2ccccc2)cc1 [Example 34, 2-(imidazo[1,2-a]pyridin-5-yl)-N-(4-phenoxyphenyl)acetamide]
38 | 81% | O=C(Cc1cccc2nccn12)Nc1ccc(C(F)(F)F)cc1Cl [Example 37, N-(2-chloro-4-(trifluoromethyl)phenyl)-2-(imidazo[1,2-a]pyridin-5-yl)acetamide]
39 | 82% | O=C(Cc1cccc2nccn12)Nc1ccc(OCC(F)(F)F)cc1 [Example 38, 2-(imidazo[1,2-a]pyridin-5-yl)-N-(4-(2,2,2-trifluoroethoxy)phenyl)-acetamide]
40 | 52% | O=C(Cc1cccc2nccn12)Nc1cnc(C(F)(F)F)nc1 [Example 47, 2-(imidazo[1,2-a]pyridin-5-yl)-N-(2-(trifluoromethyl)-pyrimidin-5-yl)acetamide]
41 | 56% | CN(C(=O)Cc1cccc2nccn12)c1ccc(C(F)(F)F)cc1 [Example 51, 2-(imidazo[1,2-a]pyridin-5-yl)-N-methyl-N-(4-(trifluoromethyl)phenyl)-acetamide]
